Values joined by “and” are separate entries in the source; they are usually repeats but may differ in a detail not shown here. Equal values may be shown once. “Also recorded” adds a separate entry of the source.
Columns and labels:
C57Blk/6 mice = assay: animal toxicity study (morbidity and mortality); type: in vivo, mouse; conditions: HPβ-CD inclusion complex vs Cremophor vehicle, from LD50
Method: C57Blk/6 female mice (3-4 week-old, 18-20 g) (Jackson Labs, Me.) were used to study the morbidity and mortality of mice treated with HPβ-CD.β-lap inclusion complex. Four mice per group were used for each dose, which varied from 20 to 100 mg/kg. […] Mice were injected (i.p.) every Monday, Wednesday and Friday for three weeks for a total of 10 injections. Control animals (4 mice/group) were injected with 5000 mg/kg of HPβ-CD alone to evaluate its toxicity. This HPβ-CD dose is approximately ten times of the HPβ-CD amount introduced at the highest dose of β-lap (100 mg/kg) via the HPβ-CD.β-lap inclusion complex. The higher dose of HPβ-CD was used to ensure the lack of toxicity of this compound. Weight and lethality were measured on a daily basis following initial drug administration. All animals were maintained in a facility accredited by the Association for Assessment and Accreditation of Laboratory Animal Care according to the “Principles of Laboratory Animal Care” of the National Institutes of Health.

[1] = solubility of β-lap in PBS (orbital shaker, UV-Vis); type: physicochemical; conditions: 37° C.
Method: Fabrication of β-lap-loaded polymer millirods. The extremely low solubility of β-lap in water has greatly limited the clinical use of this compound. The development of drug-impregnated millirods, wherein β-lap release kinetics may be accurately permits the delivery of an efficacious form of therapy against human prostate tumors that commonly over-express the NQO1 oxidoreductase. The extinction coefficient for β-lap in water was determined to be 2.6×10^4 cm^−1M^−1 at 257 nm wavelength by UV-V is spectrophotometry. Solubility experiments were performed by immersing β-lap in PBS over a period of six days in an orbital shaker at 37° C. At the start of the experiment the drug suspension was sonicated for 20 seconds to facilitate the fast reach of solubility equilibrium. Samples were taken and filtered by 0.2 μm Millipore filters via syringe to remove non-dissolved drug particles and diluted to accommodate the UV-V is sensitive range before collecting absorbance data. […] This concentration is too low for i.v. administration in clinical applications. […] Polymer millirods were fabricated using a compression heat molding procedure as previously developed in our lab. (Halpert, B., Sheehan, E. and Schmalhorst, W. (1998) Cancer 82, 737-742.) Briefly, β-lap particles were mixed with polymer microspheres (4 μm) and various concentrations of glucose. […]

[2] = β-lap release from polymer millirods in PBS; type: physicochemical; conditions: fabrication and controlled release
DU-145 cells = assay: survival / lethality of CaP cells; type: cell-based, human
[3] = tested on: LNCaP vector alone clones; assay: apoptosis in transfected LNCaP clones; type: cell-based, human; conditions: 10 μM β-lap
From the text: (§1) LNCaP cells were transfected with either pcDNA3 empty vector or pcDNA3 containing full-length NQO1 cDNA.

[4] = tested on: NQO1-expressing LNCaP clone (LN-NQ Cl 1-4, 10); assay: apoptosis in transfected LNCaP clones; type: cell-based, human; conditions: 10 μM β-lap
From the text: as §1

[5] = tested on: normal fresh or proliferating human PBMC; conditions: cited from earlier work

CC1(C)CCC2=C(O1)c1ccccc1C(=O)C2=O [β-lap, β-Lapachone]
greater bioavailability in vivo compared to previous studies (C57Blk/6 mice): ~3 fold
solubility of β-lap in PBS buffer [1]: 2.6×10^−4 M and 0.05 mg/cc
structural integrity of released β-lap (UV-Vis spectra) [2]: maintained; also recorded: maintains its structural integrity
lethality (DU-145 cells; DU-145, 4 μM β-lap): > 95%
survival (DU-145 cells; DU-145, 4 μM β-lap with 50 μM dicoumarol): > 95%
sensitivity to β-lap (DU-145 cells; DU-145, absence of IR): sensitive
apoptosis [3]: < 5%
apoptosis [4]: 80-90%
cytotoxic effects [5]: No cytotoxic effects

From patent US6890950B2, “Lapachone delivery systems, compositions and uses related thereto” (priority 2002, dated 2005)
